From US20110107445A1, “Efficient Insertion of DNA Into Embryonic Stem Cells” (ITI Scotland Limited, priority 2008, published 2011)

Assays:
[1] = test system: CYP3A4; type: in vitro ADME, mouse
Text: FIG. 24. 7-BQ oxidation by liver (A) and intestinal (B) microsomes from C57BL/6J, hCYP3A4/3A7_Cyp3a KO, hCYP3A4_Cyp3a KO and Cyp3a KO mice Data generated according to CXR approved Laboratory Method Sheet Fluor-0005. Apart from bars for untreated transgenic/knock-out mice, which represent a single measurement, data are mean±SD (n=3 for C57BL/6J microsomes; n=2 for microsomes from PCN treated transgenic strains and human liver microsomes (HLM)). Activities of samples from treated hCYP3A4/3A7_Cyp3a KO and hCYP3A4_Cyp3a KO mice were compared to that from Cyp3a KO line with an unpaired t test (two tailed P values). 3 homozygous male mice per strain were used throughout. Two mice were administered with 5-Pregnen-3β-ol-20-one-16α-carbonitrile (PCN) (100 mg/kg/2 daily doses/IP) and one mouse was given the vehicle (corn oil). […] Wild type (WT) and Cyp3a KO animals were included as controls (n=3 for WT, pooled; n=1-2 for Cyp3a KO). Animals were sacrificed 24 hrs post final dose. Liver and duodenal microsomes were analysed for CYP3A4 expression and catalytic activity.

[2] = biological target: T1, CYP3A4 (Homo sapiens, UniProt P08684); assay: In vitro oxidation of 7-BQ by pooled human liver microsomes; type: in vitro ADME
T1 construct: tissue Gentest 452172; host or cells: pooled (male) human liver microsomes
T1 sequence (P08684 whole entry): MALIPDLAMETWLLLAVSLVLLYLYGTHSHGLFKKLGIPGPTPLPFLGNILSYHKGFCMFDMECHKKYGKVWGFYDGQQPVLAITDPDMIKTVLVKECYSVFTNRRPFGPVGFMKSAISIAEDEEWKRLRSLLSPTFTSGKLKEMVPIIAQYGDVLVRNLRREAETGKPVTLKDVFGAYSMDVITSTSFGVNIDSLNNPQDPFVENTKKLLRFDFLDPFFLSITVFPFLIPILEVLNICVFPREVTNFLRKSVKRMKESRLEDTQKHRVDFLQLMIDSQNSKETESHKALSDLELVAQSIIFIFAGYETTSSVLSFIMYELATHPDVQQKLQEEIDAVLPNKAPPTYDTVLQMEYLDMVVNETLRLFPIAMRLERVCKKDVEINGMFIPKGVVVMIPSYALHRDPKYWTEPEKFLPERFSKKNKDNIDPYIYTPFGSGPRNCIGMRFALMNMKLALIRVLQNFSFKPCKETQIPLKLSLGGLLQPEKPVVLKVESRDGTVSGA
Text: FIG. 24. 7-BQ oxidation by liver (A) and intestinal (B) microsomes from C57BL/6J, hCYP3A4/3A7_Cyp3a KO, hCYP3A4_Cyp3a KO and Cyp3a KO mice Data generated according to CXR approved Laboratory Method Sheet Fluor-0005. Apart from bars for untreated transgenic/knock-out mice, which represent a single measurement, data are mean±SD (n=3 for C57BL/6J microsomes; n=2 for microsomes from PCN treated transgenic strains and human liver microsomes (HLM)). Activities of samples from treated hCYP3A4/3A7_Cyp3a KO and hCYP3A4_Cyp3a KO mice were compared to that from Cyp3a KO line with an unpaired t test (two tailed P values).

[3] = test system: CYP3A4; assay: In vitro DBF oxidation by mouse liver and intestinal microsomes; type: in vitro ADME
Protocol: The total reaction volume was 1 mL. Fluorescein fluorescence was recorded using an F-4500 fluorescence spectrophotometer (Hitachi), excitation 485 nm and emission 538 nm. Fluorescein standard (10 μL, 25 μM) was injected into the reaction cuvette approximately 150 sec after the addition of NADPH. Slopes of the time course of the product accumulation were calculated using FL-Solution 2.0 (Hitachi).

[4] = test system: CYP3A7 mRNA; details: mouse, in vivo
Protocol: 3 homozygous male mice per strain were used throughout. Two mice were administered with 5-Pregnen-3β-ol-20-one-16α-carbonitrile (PCN) (100 mg/kg/2 daily doses/IP) and one mouse was given the vehicle (corn oil). […] Wild type (WT) and Cyp3a KO animals were included as controls (n=3 for WT, pooled; n=1-2 for Cyp3a KO). Animals were sacrificed 24 hrs post final dose. Liver and duodenal microsomes were analysed for CYP3A4 expression and catalytic activity.
The mice received either corn oil (vehicle) or PCN 100 mg/kg, daily, for 2 days by intraperitoneal (IP) injection according to the experimental design described in Table 3. Dosing solutions were prepared at CXR Biosciences on the day of dosing by adding the vehicle (corn oil) to the requisite quantity of the PCN. The concentration of PCN was the concentration of supplied chemical, without any correction for purity. Excess dosing solution was stored at approximately 2-8° C. for possible future analysis. The volume of dosing solution was 10 mL/kg bodyweight. […]
For each target gene a reaction with the lowest dCt value was identified and that dCt value was subtracted from all other dCt, giving so-called ddCt (ddCt of the sample with the lowest dCt (endogenous reference) equals 0). Finally, the normalised relative amount of target gene (RQ) was calculated using the following formula: RQ=(2̂(−ddCt))*100 as shown in Table 9.

[5] = Body and liver weights of PCN treated mice; type: in vivo, mouse; details: for Liver per body weight, percentage of C57BL/6J from the same treatment group / Liver per body weight, percentage of control group of the same strain / Body weight / Liver per body weight / Liver weight: PCN 100 mg/kg daily for 2 days IP; for Body weight / Liver per body weight / Liver weight: mean ± SD
Protocol: (§1) The mice received either corn oil (vehicle) or PCN 100 mg/kg, daily, for 2 days by intraperitoneal (IP) injection according to the experimental design described in Table 3. Dosing solutions were prepared at CXR Biosciences on the day of dosing by adding the vehicle (corn oil) to the requisite quantity of the PCN. The concentration of PCN was the concentration of supplied chemical, without any correction for purity. Excess dosing solution was stored at approximately 2-8° C. for possible future analysis. The volume of dosing solution was 10 mL/kg bodyweight. Approximately 24 h after the second dose, the mice were euthanized using a rising concentration of CO2. Blood was collected at termination by cardiac puncture into lithium/heparin coacted tubes for plasma preparation.
The body weight of each mouse was recorded at the start of the study and immediately prior to termination. Bodyweights were recorded electronically or manually and records of these weights were stored in the study file.
In order to weigh the liver, the gall bladder was removed, and then the liver was removed and weighed. Two samples of liver (approximately 5 mm^3) were immediately flash frozen in a cryovial in liquid nitrogen then stored at approximately −70° C. for RNA analysis. The remaining liver was weighed and immediately used for subcellular fractionation to homogenates and microsomes.

[6] = Plasma clinical chemistry of PCN treated mice; type: in vivo, mouse; details: PCN treated hCYP3A4_Cyp3a KO mice compared to treated C57BL/6J mice
Protocol: as §1
Plasma samples were produced by removing red blood cells by centrifugation (2,000-3,000 rpm for 10 min at 8-10° C.). The supernatant (plasma) was stored on ice prior to clinical chemistry analysis. The pellet was discarded. Plasma samples from all animals were analysed for triglycerides, alanine aminotransferase, alkaline phosphatase, aspartate aminotransferase, albumin, cholesterol, bilirubin (total and direct), high and low density lipoproteins using the COBAS Integra 400+ (Roche), and the results are shown in FIGS. 19-21. […]

[7] = test system: CYP3A4; assay: Western blot of liver and intestinal microsomes for CYP3A4 protein; type: in vivo, mouse
Protocol: as §1
The duodenum (first 10 cm from the base of the stomach) was removed and flushed with ice cold PBS containing a protease inhibitor cocktail (Roche). The first 2 cm was but and placed into a 2 ml cryvial containing 1 ml of TRIZOL (Sigma), flash frozen immediately, and then stored at approximately −70° C. for Taqman® analysis. The remainder of the duodenum was placed in a 1 ml cryovial and flash frozen immediately, and then stored at approximately −70°.
Liver microsomes were produced by preparing subcellular fractions from fresh livers. The livers were processed as described above to homogenates and microsomes. Aliquots from liver samples were stored at approximately −70° prior to analysis.
Frozen small intestines were homogenised in SET with protease cocktail inhibitor (Roche) and PMSF (mM) using a Polytron homogeniser. The homogenates were subjected to subcellular fractionation as described above. The microsomal fractions were stored at approximately −70° prior to analysis.
Liver microsomes from C57BL/6J, hCYP3A4/3A7_Cyp3a KO, hCYP3A4_Cyp3a KO and Cyp3a KO mice were analysed by Western blotting using an antibody specific to CYP3A4 and the results are shown in FIG. 22. There was a clear protein band for CYP3A4 on the Western blot of liver and intestinal microsomes from vehicle treated hCYP3A4/3A7_Cyp3a KO mice. […]

Structure (SMILES): c1ccc(COc2ccc3cccnc3c2)cc1 [7-BQ, 7-benzyloxyquinoline]
- 7-BQ oxidation [1]: marked decrease
- 7-BQ oxidation, recovery of activity [1]: small and not statistically significant
- 7-BQ oxidation reaction rate [2]: low reaction rate

Structure (SMILES): O=C(OCc1ccccc1)c1ccccc1-c1c2ccc(=O)cc-2oc2cc(OCc3ccccc3)ccc12 [DBF]
- DBF oxidation reaction rate ([3]; hCYP3A4/3A7_Cyp3a KO microsomes compared to hCYP3A4_Cyp3a KO): higher
- DBF oxidation activity ([3]; liver and intestinal samples from untreated humanised mice compared to Cyp3a KO): little increase
- DBF oxidation activity, difference humanised vs Cyp3a KO ([3]; samples from the PCN treated groups): significantly more pronounced

Structure (SMILES): CC(=O)[C@H]1[C@H](C#N)C[C@H]2[C@@H]3CC=C4C[C@@H](O)CC[C@]4(C)[C@H]3CC[C@@]21C [PCN, 5-Pregnen-3β-ol-20-one-16α-carbonitrile]
- CYP3A7 mRNA (Q-PCR) [4]: possible induction of CYP3A7
- Liver per body weight, percentage of C57BL/6J from the same treatment group ([5]; C57BL/6J mice): 100 ± 2.1 %
- Liver per body weight, percentage of control group of the same strain ([5]; C57BL/6J mice): 131 ± 2.7 %
- Body weight ([5]; C57BL/6J mice, n=3): 19.30 ± 0.82 g
- Liver per body weight ([5]; C57BL/6J mice, n=3): 5.70 ± 0.12 %
- Liver weight ([5]; C57BL/6J mice, n=3): 1.10 ± 0.06 g
- liver/body weight ratio ([5]; C57BL/6J mice, PCN administration vs control): significantly (P<0.001) increased
- Liver per body weight, percentage of C57BL/6J from the same treatment group ([5]; Cyp3a KO mice): 89 ± 4.4 %
- Liver per body weight, percentage of control group of the same strain ([5]; Cyp3a KO mice): 121 ± 6.0 %
- Body weight ([5]; Cyp3a KO mice, n=2): 24.05 ± 1.77 g
- Liver per body weight ([5]; Cyp3a KO mice, n=2): 5.06 ± 0.25 %
- Liver weight ([5]; Cyp3a KO mice, n=2): 1.22 ± 0.15 g
- liver/body weight ratio ([5]; all treated transgenic mice vs treated wild type, significant (P<0.05) only in Cyp3a KO group): decreased liver/body weight ratio compared to the treated wild type
- Liver per body weight, percentage of C57BL/6J from the same treatment group ([5]; hCYP3A4/3A7_Cyp3a KO mice): 97 ± 21.1 %
- Liver per body weight, percentage of control group of the same strain ([5]; hCYP3A4/3A7_Cyp3a KO mice): 120 ± 26.1 %
- Body weight ([5]; hCYP3A4/3A7_Cyp3a KO mice, n=2): 19.15 ± 0.64 g
- Liver per body weight ([5]; hCYP3A4/3A7_Cyp3a KO mice, n=2): 5.53 ± 1.20%
- Liver weight ([5]; hCYP3A4/3A7_Cyp3a KO mice, n=2): 1.06 ± 0.27 g
- Liver per body weight, percentage of C57BL/6J from the same treatment group ([5]; hCYP3A4_Cyp3a KO mice): 93 ± 4.6 %
- Liver per body weight, percentage of control group of the same strain ([5]; hCYP3A4_Cyp3a KO mice): 113 ± 5.6 %
- Body weight ([5]; hCYP3A4_Cyp3a KO mice, n=2): 19.00 ± 0.71 g
- Liver per body weight ([5]; hCYP3A4_Cyp3a KO mice, n=2): 5.27 ± 0.26%
- Liver weight ([5]; hCYP3A4_Cyp3a KO mice, n=2): 1.00 ± 0.09 g
- plasma level of cholesterol, low and high density lipoproteins, alanine transferase and alkaline phosphatase [6]: statistically significant increases
- hepatic and intestinal CYP3A4 expression ([7]; both humanised lines, treatment with PCN): strong induction
- intestinal CYP3A4 protein upregulation (Western blot) ([7]; intestinal microsomes, humanised mice, compared with liver upregulation): less pronounced
- liver CYP3A4 protein (Western blot) ([7]; liver microsomes, humanised mice, PCN 100 mg/kg/2 days/IP): strong upregulation
- 7-BQ oxidation activity in response to PCN [1]: no increase in activity
